# Where “and” joins values, the source holds several entries; their conditions need not be identical. Identical values can stand only once. Like-named read-outs stand apart in the source and are kept apart here.
# What was measured:
# Format in all cases: cell-based
# [1] = Basal cytotoxicity test, Neutral Red Uptake (NRU) assay; settings: for LD50 at 24 h: mouse, po, acute oral LD50 calculated from 3T3 NRU IC50 by regression formula, read-out: Basal cytotoxicity Estimated* LD50; for IC50 at 24 h: normal mouse embryo fibroblasts, read-out: Cytotoxicity IC50, 3T3
# Procedure: In parallel, the borderline concentration relevant to the highest tolerated dose has been determined for each compound using the NIH 3T3 (mouse embryo fibroblasts) cell line and the basal cytotoxicity obtained has then been used to predict the starting doses for in vivo acute oral LD50 values in rodents.
# the Neutral Red Uptake (NRU) assay was performed according to the standard protocol of Stokes modified by the NICEATM-ECVAM validation study. The NRU cytotoxicity assay procedure is based on the ability of viable cells to incorporate and bind Neutral Red, a supravitally dye. Balb/c 3T3 (Mouse Swiss Albino embryo fibroblast) cells (9000 cells/well) were placed into 96-well plates for 24 h in Dulbecco's modified Eagle's (DMEM) medium containing 5% fetal bovine serum. The cells were then exposed to the test compounds over a range of […] concentrations (1000, 316, 100, 31, 10, 3, 1 μg/ml) for 24 h. Untreated cells were used as a control. After 24 h, the medium was removed from all plates. Then, 250 μL of Neutral Red solution were added (0.05 mg/mL NR in DMEM 24 h pre-incubated at 37° C. and then filtered before use through 0.22-μm syringe filter). Plates were incubated for 3 h and then cells were washed three times with PBS. The dye within viable cells was released by extraction with a mixture of acetic acid, ethanol and water (1:50:49). Absorbance of Neutral Red was measured using a spectrophotometer multiplate reader (TECAN, Infinite M1000) at 540 nm. The percentage of living cells was calculated using the formula: OD (treated cells)*100/OD (control cells). The IC50 values were calculated using the programme Graph Pad Prism® 3.0.
# Data from the in vitro tests were used for estimating the starting dose for acute oral systemic toxicity tests in rodents. […] The value is recalculated to mg/kg and compounds are evaluated in accordance with four toxicity categories: category 1: LD50≤5 mg/kg (highly toxic); category 2: 5<LD50≤50 mg/kg (moderately toxic); category 3: 50<LD50≤300 mg/kg (slightly toxic); category 4: 300<LD50≤2 000 mg/kg (practically non-toxic).
# [2] = tested on: SH-SY5Y (human neuroblastoma); assay: In vitro cytotoxicity, MTT test; settings: 72 h, read-out: Cytotoxicity IC50, SHSY5Y
# Procedure: (§1) Anticancer activity of selenopheno[h]chromenes was tested in vitro using cytotoxicity assay. […] About 2-9·10^4 cells/mL (depending on line nature) were placed in 96-well plates immediately after compounds were added to the wells. Untreated cells were used as a control. The plates were incubated for 72 h, 37° C., 5% CO2. The number of surviving cells was determined using 3-(4,5-dimethylthiazol-2-yl)-2,5-diphenyltetrazolinium bromide (MTT). MTT-test: after incubating culture medium was removed and 200 μL fresh medium with 10 mM HEPES was added in each well of the plate, than 20 μL MTT (2 mg/mL in HBSS) was added. After incubation (3 hr, 37° C., 5% CO2), the medium with MTT was removed and 200 μL DMSO were added at once to each sample. The samples were tested at 540 nm on Anthos HT II photometer.
# [3] = tested on: MCF-7 (human breast adenocarcinoma, estrogen-positive); assay: In vitro cytotoxicity, MTT test; settings: read-out: Cytotoxicity IC50, MCF-7
# Procedure: as §1
# [4] = tested on: MDA-MB-435s (human melanoma); assay: In vitro cytotoxicity, MTT test; settings: 72 h, read-out: Cytotoxicity IC50, MDA-MB-435s
# Procedure: as §1
# [5] = tested on: HT-1080 (human fibrosarcoma); assay: In vitro cytotoxicity, MTT test; settings: read-out: Cytotoxicity IC50, HT-1080
# Procedure: as §1
# [6] = tested on: A549 (human lung carcinoma); assay: In vitro cytotoxicity, MTT test; settings: read-out: Cytotoxicity IC50, A549
# Procedure: as §1
# CCL-8 (mouse sarcoma) = assay: In vitro cytotoxicity, MTT test; settings: 72 h, read-out: Cytotoxicity IC50, CCL-8
# Procedure: as §1
# [7] = tested on: MES-SA (human uterus sarcoma); assay: In vitro cytotoxicity, MTT test; settings: 72 h, read-out: Cytotoxicity IC50, MES-SA
# Procedure: as §1
# MG-22A (mouse hepatoma) = assay: In vitro cytotoxicity, MTT test; settings: 72 h, read-out: Cytotoxicity IC50, MG-22A
# Procedure: as §1
# [8] = tested on: HepG2 (human hepatocellular carcinoma); assay: In vitro cytotoxicity, MTT test; settings: read-out: Cytotoxicity IC50, HepG2
# Procedure: as §1
# [9] = Homo sapiens, A549, 72 h, MTT, 72 h
SMILES,LD50 at 24 h [1],IC50 at 24 h [1],"IC50 ([2]; Homo sapiens, SH-SY5Y, MTT)","IC50 ([3]; MCF7, MTT, 72 h)",IC50 ([4]; MTT),"IC50 ([5]; HT-1080, MTT, 72 h)","IC50 [6, 9]",IC50 (CCL-8 (mouse sarcoma); MTT),IC50 ([7]; MTT),IC50 (MG-22A (mouse hepatoma); MTT),"IC50 ([8]; HepG2, MTT, 72 h)",further results
"COC(=O)c1cc2ccc3c(Br)c(C(C)(C)O)[se]c3c2oc1=O [Compound I-1, Methyl 7-bromo-8-(2-hydroxypropan-2-yl)-2-oxo-2H-selenopheno[3,2-h]chromene-3-carboxylate]",> 6000 µmol/kg and > 2660 mg/kg,225 ± 11 µM,32 µM,221 ± 13 µM,95 ± 8 µM,225 ± 11 µM,196 ± 9 µM,> 225 µM,95 ± 9 µM,> 122 µM,> 117 µM,
"COC(=O)c1cc2ccc3c(Br)c(C4=CCCC4)[se]c3c2oc1=O [Compound I-2, Methyl 7-bromo-8-(cyclopent-1-en-1-yl)-2-oxo-2H-selenopheno[3,2-h]chromene-3-carboxylate]",500 µmol/kg and 194 mg/kg,> 235 µM,> 117 µM,281 ± 12 µM,142 ± 12 µM,110 ± 12 µM,122 ± 8 µM,82 ± 8 µM,155 ± 3 µM,> 235 µM,197 ± 24 µM,
"COC(=O)c1cc2ccc3c(Br)c(C4(O)CCCCC4)[se]c3c2oc1=O [Compound I-3, Methyl 7-bromo-8-(1-hydroxycyclohexyl)-2-oxo-2H-selenopheno[3,2-h]chromene-3-carboxylate]",> 5600 µmol/kg,207 ± 9 µM,≤ 19 µM,29 ± 2 µM,64 ± 6 µM,27 ± 1 µM,≤ 19 µM,186 ± 9 µM,66 ± 3 µM,33 ± 6 µM,> 117 µM,"IC50 ([2]; MTT): 19 ± 3 µM; IC50 ([6]; MTT, 72 h): 19 ± 2 µM"
"COC(=O)c1cc2ccc3c(Br)c(C4(OC)CCCCC4)[se]c3c2oc1=O [Compound I-4, Methyl 7-bromo-8-(1-methoxycyclohexyl)-2-oxo-2H-selenopheno[3,2-h]chromene-3-carboxylate]",1100 µmol/kg and 548 mg/kg,198 ± 2 µM,> 117 µM,46 ± 14 µM,103 ± 4 µM,52 ± 5 µM,> 201 µM,95 ± 2 µM,201 ± 5 µM,446 ± 6 µM,103 ± 5 µM,
CCCCCCCCCCOC(=O)c1cc2ccc3c(Br)c(C4(O)CCCCC4)[se]c3c2oc1=O [Compound I-7],> 3300 µmol/kg and > 2000 mg/kg,> 164 µM,> 117 µM,48 ± 13 µM,152 ± 9 µM,> 164 µM,> 164 µM,81 ± 2 µM,> 164 µM,> 164 µM,151 ± 6 µM,
"COC(=O)c1cc2ccc3c(Br)c(CN4CCCCC4)[se]c3c2oc1=O [Compound I-8, Methyl 7-bromo-2-oxo-8-(piperidin-1-ylmethyl)-2H-selenopheno[3,2-h]chromene-3-carboxylate]",> 3900 µmol/kg and > 2000 mg/kg,54 ± 3 µM,> 192 µM,165 ± 5 µM,> 192 µM,> 192 µM,115 ± 8 µM,> 122 µM,> 117 µM,46 ± 3 µM,181 ± 9 µM,
"COC1(c2[se]c3c(ccc4cc(C(=O)O)c(=O)oc43)c2Br)CCCCC1 [Compound I-12, 7-Bromo-8-(1-methoxycyclohexyl)-2-oxo-2H-selenopheno[3,2-h]chromene-3-carboxylic acid]",300 µmol/kg and 134 mg/kg,213 ± 7 µM,193 ± 2 µM,141 ± 10 µM,127 ± 12 µM,51 ± 2 µM,61 ± 1 µM,,> 206 µM,> 206 µM,97 ± 7 µM,IC50 (CCL-8 (mouse sarcoma)): 134 ± 6 µM
"Cl.O=C(O)c1cc2ccc3c(Br)c(CN4CCCCC4)[se]c3c2oc1=O [Compound I-13, 7-Bromo-2-oxo-8-(piperidin-1-ylmethyl)-2H-selenopheno[3,2-h]chromene-3-carboxylic acid hydrochloride]",4300 µmol/kg and 2180 mg/kg,197 ± 8 µM,,,,,,,,,,"IC50 ([2]; Homo sapiens, SH-SY5Y): > 197 µM; IC50 ([3]; MCF7, 72 h): 119 ± 2 µM; IC50 [4]: 182 ± 11 µM; IC50 ([5]; HT-1080, 72 h): 197 ± 3 µM; IC50 ([6]; Homo sapiens, A549, 72 h): 129 ± 6 µM; IC50 (CCL-8 (mouse sarcoma)): > 122 µM; IC50 [7]: 103 ± 9 µM; IC50 (MG-22A (mouse hepatoma)): 49 ± 6 µM; IC50 ([8]; HepG2, 72 h): > 197 µM"
"CCCCCCCCOC(=O)c1cc2ccc3c(Br)c(C4=CCCCC4)[se]c3c2oc1=O [Compound I-16, Octyl 7-bromo-8-(cyclohex-1-en-1-yl)-2-oxo-2H-selenopheno[3,2-h]chromene-3-carboxylate]",876 mg/kg,> 177 µM,> 117 µM,> 117 µM,> 122 µM,> 117 µM,> 117 µM,,> 117 µM,> 122 µM,> 177 µM,
"CC(C)CCC[C@@H](C)[C@H]1CC[C@H]2[C@@H]3CC=C4C[C@@H](OC(=O)c5cc6ccc7c(Br)c(C8=CCCCC8)[se]c7c6oc5=O)CC[C@]4(C)[C@H]3CC[C@]12C [Compound I-17, (3S,8S,9S,10R,13R,14S,17R)-10,13-Dimethyl-17-((R)-6-methylheptan-2-yl)-2,3,4,7,8,9,10,11,12,13,14,15,16,17-tetradecahydro-1H-cyclopenta[a]phenanthren-3-yl-7-bromo-8-(cyclohex-1-en-1-yl)-2-oxo-2H-selenopheno[3,2-h]chromene-3-carboxylate]",3000 µmol/kg and 2450 mg/kg,> 117 µM,> 117 µM,> 117 µM,,> 117 µM,> 117 µM,,> 117 µM,,> 117 µM,
"COC1(c2[se]c3c(ccc4cc(C(=O)O[C@H]5CC[C@@]6(C)C(=CC[C@H]7[C@@H]8CC[C@H]([C@H](C)CCCC(C)C)[C@@]8(C)CC[C@@H]76)C5)c(=O)oc43)c2Br)CCCCC1 [Compound I-18, (3S,8S,9S,10R,13R,14S,17R)-10,13-Dimethyl-17-((R)-6-methylheptan-2-yl)-2,3,4,7,8,9,10,11,12,13,14,15,16,17-tetradecahydro-1H-cyclopenta[a]phenanthren-3-yl-7-bromo-8-(1-methoxycyclohexyl)-2-oxo-2H-selenopheno[3,2-h]chromene-3-carboxylate]",3700 µmol/kg and 3190 mg/kg,> 117 µM,> 117 µM,> 117 µM,> 117 µM,> 117 µM,> 117 µM,> 117 µM,> 117 µM,> 117 µM,> 117 µM,
